Results on 6 molecules are retold here after patent US10988524B2, “Modified relaxin B chain peptides and their therapeutic use” (priority 2018, dated 2021).

Molecules are shown by their SMILES. “And” between values parts separate entries of the source, which are not always exact repeats. Identical values can stand only once. Non-standard residues stand in square brackets, D forms with d. Residues, ends and D or L forms follow the SMILES beside them. 1Nal = N[C@@H](Cc1cccc2ccccc12)C(=O)O; αMeK = C[C@](N)(CCCCN)C(=O)O; Nle = CCCC[C@H](N)C(=O)O; Aib = CC(C)(N)C(=O)O A value given as a limit tells only on which side of the number the result lay.

The first test concerns the target T1, RXFP1 (Homo sapiens, UniProt Q9HBX9).
T1 sequence (Q9HBX9 1-757): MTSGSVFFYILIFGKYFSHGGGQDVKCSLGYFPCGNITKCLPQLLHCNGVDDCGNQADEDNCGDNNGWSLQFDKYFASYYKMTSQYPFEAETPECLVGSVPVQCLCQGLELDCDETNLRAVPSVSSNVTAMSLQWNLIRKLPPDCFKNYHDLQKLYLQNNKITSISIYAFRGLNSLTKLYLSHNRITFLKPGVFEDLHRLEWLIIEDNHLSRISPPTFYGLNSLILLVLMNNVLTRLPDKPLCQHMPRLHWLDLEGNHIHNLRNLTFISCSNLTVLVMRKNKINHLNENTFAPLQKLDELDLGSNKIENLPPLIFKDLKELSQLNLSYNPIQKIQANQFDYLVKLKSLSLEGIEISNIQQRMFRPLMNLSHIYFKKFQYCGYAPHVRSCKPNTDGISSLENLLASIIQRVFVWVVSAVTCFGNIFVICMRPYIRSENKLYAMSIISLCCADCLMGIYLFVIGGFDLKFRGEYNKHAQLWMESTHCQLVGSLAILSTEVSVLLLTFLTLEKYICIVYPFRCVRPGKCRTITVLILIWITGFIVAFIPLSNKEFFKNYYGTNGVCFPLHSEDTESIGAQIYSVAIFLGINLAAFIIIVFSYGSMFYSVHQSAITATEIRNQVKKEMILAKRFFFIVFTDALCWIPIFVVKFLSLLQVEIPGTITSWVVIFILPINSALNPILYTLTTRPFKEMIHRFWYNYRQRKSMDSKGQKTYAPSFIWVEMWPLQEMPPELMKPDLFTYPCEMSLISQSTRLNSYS
Kind of test: OVCAR5 cAMP assay (RXFP1 agonist activity, HTRF). Conditions: OVCAR-5, read-out: cAMP assay in OVCAR 5 cells Emax, maximal intracellular cAMP relative to H2-relaxin in the same test occasion. On the technique in general: cAMP levels reflect the balance of adenylyl cyclase and phosphodiesterase activity.
On to `CCCC[C@H](NC(=O)CNC(=O)[C@H](CCC(=O)O)NC(=O)C(C)(C)NC(=O)C(C)(C)NC(=O)[C@@H](NC(=O)C(C)(C)NC(=O)[C@H](C)NC(=O)[C@H](CCCNC(=N)N)NC(=O)[C@@H](NC(=O)[C@H](CCCCN)NC(=O)[C@H](CCC(=O)O)NC(=O)[C@H](CCCNC(=N)N)NC(=O)CNC(=O)[C@H](CCC(=O)O)NC(=O)[C@H](CC(C)C)NC(C)=O)C(C)C)[C@@H](C)CC)C(=O)N[C@@H](CO)C(=O)N[C@H](C(=O)N[C@@H](Cc1c[nH]c2ccccc12)C(=O)N[C@@H](CO)C(=O)N[C@@](C)(CCCCN)C(=O)N[C@@H](CCCNC(=N)N)C(=O)N[C@@H](CCCCN)C(=O)N[C@@H](CCCCN)C(N)=O)[C@@H](C)O` [compound 20] (Ac-LEGREKVRA[Aib]I[Aib][Aib]EG[Nle]STWS[αMeK]RKK-NH2), for which the Emax came out at 97%.
Still for that read-out and setting: as for `CC[C@H](C)[C@H](NC(=O)[C@H](CCC(N)=O)NC(=O)[C@H](C)NC(=O)[C@H](CCCNC(=N)N)NC(=O)[C@@H](NC(=O)[C@H](CCCCN)NC(=O)[C@H](CCC(=O)O)NC(=O)[C@H](CCCNC(=N)N)NC(=O)CNC(=O)[C@H](CCC(=O)O)NC(=O)[C@H](CC(C)C)NC(C)=O)C(C)C)C(=O)NC(C)(C)C(=O)NC(C)(C)C(=O)N[C@@H](CCC(=O)O)C(=O)NCC(=O)N[C@@H](CCSC)C(=O)N[C@@H](CO)C(=O)N[C@@H](CCCCN)C(=O)N[C@@H](Cc1c[nH]c2ccccc12)C(=O)N[C@@H](CO)C(=O)N[C@@H](CCCCN)C(=O)N[C@@H](CCCNC(=N)N)C(N)=O` [compound 38] (Ac-LEGREKVRAQI[Aib][Aib]EGMSKWSKR-NH2), the figure is 102%; as for `CCCC[C@H](NC(=O)CNC(=O)[C@H](CCC(=O)O)NC(=O)C(C)(C)NC(=O)C(C)(C)NC(=O)[C@@H](NC(=O)[C@H](C)NC(=O)[C@H](C)NC(=O)[C@H](CCCNC(=N)N)NC(=O)[C@@H](NC(=O)[C@H](CCCCN)NC(=O)[C@H](CCC(=O)O)NC(=O)[C@H](CCCNC(=N)N)NC(=O)CNC(=O)[C@H](CCC(=O)O)NC(=O)[C@H](CC(C)C)NC(C)=O)C(C)C)[C@@H](C)CC)C(=O)N[C@@H](CO)C(=O)N[C@H](C(=O)N[C@@H](Cc1c[nH]c2ccccc12)C(=O)N[C@@H](CO)C(=O)NC(C)(C)C(=O)N[C@@H](CCCNC(=N)N)C(=O)N[C@@H](CCCCN)C(=O)N[C@@H](CCCCN)C(N)=O)[C@@H](C)O` [compound 17] (Ac-LEGREKVRAAI[Aib][Aib]EG[Nle]STWS[Aib]RKK-NH2), 90%.
Same read-out and setting: for `CCCC[C@H](NC(=O)CNC(=O)[C@H](CCC(=O)O)NC(=O)C(C)(C)NC(=O)C(C)(C)NC(=O)[C@@H](NC(=O)[C@H](CCC(N)=O)NC(=O)[C@H](C)NC(=O)[C@H](CCCNC(=N)N)NC(=O)[C@@H](NC(=O)[C@H](CCCCN)NC(=O)[C@H](CCC(=O)O)NC(=O)[C@H](CCCNC(=N)N)NC(=O)CNC(=O)[C@H](CCC(=O)O)NC(=O)[C@H](CC(C)C)NC(C)=O)C(C)C)[C@@H](C)CC)C(=O)N[C@@H](CO)C(=O)N[C@H](C(=O)N[C@@H](Cc1cccc2ccccc12)C(=O)N[C@@H](CO)C(=O)N[C@@H](CCCCN)C(=O)N[C@@H](CCCNC(=N)N)C(=O)N[C@@H](CCCCN)C(=O)N[C@@H](CCCCN)C(N)=O)[C@@H](C)O` [compound 15] (Ac-LEGREKVRAQI[Aib][Aib]EG[Nle]ST[1Nal]SKRKK-NH2) the value was 104%; for `CC[C@H](C)[C@H](NC(=O)[C@H](CCC(N)=O)NC(=O)[C@H](C)NC(=O)[C@H](CCCNC(=N)N)NC(=O)[C@@H](NC(=O)[C@H](CCCCN)NC(=O)[C@H](CCC(=O)O)NC(=O)[C@H](CCCNC(=N)N)NC(=O)CNC(=O)[C@H](CCC(=O)O)NC(=O)[C@H](CC(C)C)NC(C)=O)C(C)C)C(=O)NC(C)(C)C(=O)NC(C)(C)C(=O)N[C@@H](CCC(=O)O)C(=O)NCC(=O)N[C@@H](CCC(N)=O)C(=O)N[C@@H](CO)C(=O)N[C@H](C(=O)N[C@@H](Cc1c[nH]c2ccccc12)C(=O)N[C@@H](CO)C(=O)NC(C)(C)C(=O)N[C@@H](CCCNC(=N)N)C(=O)N[C@@H](CCCCN)C(=O)N[C@@H](CCCCN)C(N)=O)[C@@H](C)O` [compound 35] (Ac-LEGREKVRAQI[Aib][Aib]EGQSTWS[Aib]RKK-NH2), 98%.
Same read-out and setting: as for `CCCC[C@H](NC(=O)CNC(=O)[C@H](CCC(=O)O)NC(=O)C(C)(C)NC(=O)C(C)(C)NC(=O)[C@@H](NC(=O)[C@H](CCC(N)=O)NC(=O)[C@H](C)NC(=O)[C@H](CCCNC(=N)N)NC(=O)[C@@H](NC(=O)[C@H](CCCCN)NC(=O)[C@H](CCC(=O)O)NC(=O)[C@H](CCCNC(=N)N)NC(=O)CNC(=O)[C@H](CCC(=O)O)NC(=O)[C@H](CC(C)C)NC(C)=O)C(C)C)[C@@H](C)CC)C(=O)N[C@@H](CO)C(=O)N[C@H](C(=O)N[C@@H](Cc1c[nH]c2ccccc12)C(=O)N[C@@H](C)C(=O)NC(C)(C)C(=O)N[C@@H](CCCNC(=N)N)C(=O)N[C@@H](CCCCN)C(=O)N[C@@H](CCCCN)C(N)=O)[C@@H](C)O` [compound 22] (Ac-LEGREKVRAQI[Aib][Aib]EG[Nle]STWA[Aib]RKK-NH2), the figure is 102%.

Still in this test, the particulars now being: cAMP assay in OVCAR 5 cells EC50 (nM), OVCAR5 cells expressing endogenous RXFP1; cAMP by HTRF; 30 min at 37° C.; 1 mM IBMX.
With `CCCC[C@H](NC(=O)CNC(=O)[C@H](CCC(=O)O)NC(=O)C(C)(C)NC(=O)C(C)(C)NC(=O)[C@@H](NC(=O)C(C)(C)NC(=O)[C@H](C)NC(=O)[C@H](CCCNC(=N)N)NC(=O)[C@@H](NC(=O)[C@H](CCCCN)NC(=O)[C@H](CCC(=O)O)NC(=O)[C@H](CCCNC(=N)N)NC(=O)CNC(=O)[C@H](CCC(=O)O)NC(=O)[C@H](CC(C)C)NC(C)=O)C(C)C)[C@@H](C)CC)C(=O)N[C@@H](CO)C(=O)N[C@H](C(=O)N[C@@H](Cc1c[nH]c2ccccc12)C(=O)N[C@@H](CO)C(=O)N[C@@](C)(CCCCN)C(=O)N[C@@H](CCCNC(=N)N)C(=O)N[C@@H](CCCCN)C(=O)N[C@@H](CCCCN)C(N)=O)[C@@H](C)O` [compound 20] (Ac-LEGREKVRA[Aib]I[Aib][Aib]EG[Nle]STWS[αMeK]RKK-NH2), the EC50 was ≤ 10 nM and ≤ 5 nM and 1.8 nM.
On the same count and under the same terms, as for `CCCC[C@H](NC(=O)CNC(=O)[C@H](CCC(=O)O)NC(=O)C(C)(C)NC(=O)C(C)(C)NC(=O)[C@@H](NC(=O)[C@H](CCC(N)=O)NC(=O)[C@H](C)NC(=O)[C@H](CCCNC(=N)N)NC(=O)[C@@H](NC(=O)[C@H](CCCCN)NC(=O)[C@H](CCC(=O)O)NC(=O)[C@H](CCCNC(=N)N)NC(=O)CNC(=O)[C@H](CCC(=O)O)NC(=O)[C@H](CC(C)C)NC(C)=O)C(C)C)[C@@H](C)CC)C(=O)N[C@@H](CO)C(=O)N[C@H](C(=O)N[C@@H](Cc1cccc2ccccc12)C(=O)N[C@@H](CO)C(=O)N[C@@H](CCCCN)C(=O)N[C@@H](CCCNC(=N)N)C(=O)N[C@@H](CCCCN)C(=O)N[C@@H](CCCCN)C(N)=O)[C@@H](C)O` [compound 15] (Ac-LEGREKVRAQI[Aib][Aib]EG[Nle]ST[1Nal]SKRKK-NH2), the figure is 24.4 nM.

Broadly, the Emax is the maximal effect, on the per cent scale that the assay sets. By EC50 is commonly meant the midpoint of the concentration-response curve. Low values mean an effect from little substance, high ones a need for much substance.
